Columns and labels:
[1] = tested on: PACA-2 human pancreatic carcinoma cells; test: MTS cell viability assay, PACA-2 human pancreatic carcinoma cells; assay type: cell-based; conditions: PACA-2, 4 h compound incubation, MTS, read-out: IC50 Values, Cancerous Cells, Pancreas PACA-2
[2] = tested on: K-562 human leukemia cells; test: MTS cell viability assay, K-562 human leukemia cells; assay type: cell-based; conditions: K562, K-562, 4 h compound incubation, MTS, read-out: IC50 Values, Cancerous Cells, Leukemia K-562
[3] = tested on: HT29 human colon cancer xenograft; test: Colon cancer xenograft model (HT29) in athymic nude mice; assay type: in vivo
Procedure: Tumors were allowed to grow to approximately 70 mm^3 in size. Animals were randomized into two groups of eight animals per group. […] Drug or vehicle was administered every Monday, Wednesday and Friday for a total of nine doses (qMWFx3). Tumor size was evaluated periodically during the study. For each subject, tumor volume was calculated using the formula (L×W^2)/2 where L and W were the length and width of the tumor, respectively. The arithmetic mean tumor volume was calculated for each treatment group +/− standard error of the mean (SEM). […] Tumors were allowed to grow to approximately 90 mm^3 in size. Animals were randomized into three groups of eight animals per group. […] Drug or vehicle was administered every Monday, Wednesday and Friday for a total of nine doses (qMWFx3). Tumor size was evaluated periodically during the study. For each subject, tumor volume was calculated using the formula (L×W^2)/2 where L and W were the length and width of the tumor, respectively. The arithmetic mean tumor volume was calculated for each treatment group +/− standard error of the mean (SEM). […] Tumors were allowed to grow to approximately 60 mm^3 in size. Animals were randomized into two groups of eight animals per group. At day five post injection, mice with established tumors were treated intraperitoneally with either Compound 182 (40 mg/kg) or vehicle control. Drug or vehicle was administered every Monday, Wednesday and Friday for a total of nine doses (qMWFx3). Tumor size was evaluated periodically during the study. For each subject, tumor volume was calculated using the formula (L×W^2)/2 where L and W were the length and width of the tumor, respectively. The arithmetic mean tumor volume was calculated for each treatment group +/− standard error of the mean (SEM). […] Tumors were allowed to grow to approximately 50 mm^3 in size. Animals were randomized into three groups of five animals per group. At day eight post injection, mice with established tumors were treated intraperitoneally with either Compound 180 (40 mg/kg) or Compound 125 (40 mg/kg) and vehicle control. Drug or vehicle was administered every Monday, Wednesday and Friday for a total of twelve doses (qMWFx4). Tumor size was evaluated periodically during the study. For each subject, tumor volume was calculated using the formula (L×W^2)/2 where L and W were the length and width of the tumor, respectively. The arithmetic mean tumor volume was calculated for each treatment group +/−standard error of the mean (SEM).

E2F-1 = E2F-1 induction in HT-29 cells; assay type: cell-based, human
Description: Another effect of the compounds of the present invention is the induction or elevation of activity (e.g. elevation of the level) of one or more checkpoint molecules (i.e., a member of the E2F family of transcription factors). Studies have shown that β-lapachone induces activation of E2F1 checkpoint pathway in nuclei of cancer cells but not in normal cells, resulting in the arrest of cancer cells in G1 and/or S phase. Several compounds of the present invention were effective in activating the E2F1 checkpoint pathway (e.g. elevation of E2F1 levels), thus causing G1 and/or S phase arrest. Furthermore, the compounds of the present invention have no significant toxic effects on normal cells (See. Table 1). The assays of the present invention as shown in Table 1 and methods of measuring induction of E2F1 activity and elevation of E2F1 levels can be carried out following the descriptions found in Li et al., (2003) Proc Natl Acad Sci USA. 100(5): 2674-8 and U.S. Patent Application Publication No. 2002/0169135, both incorporated herein by reference.

[4] = tested on: HT-29 human colon carcinoma cells; test: MTS cell viability assay, HT-29 human colon carcinoma cells; assay type: cell-based; conditions: 4 h compound incubation, read-out: IC50 Values, Cancerous Cells, Colon HT-29
[5] = tested on: DLD-1 human colon carcinoma cells; test: MTS cell viability assay, DLD-1 human colon carcinoma cells; assay type: cell-based; conditions: DLD-1, 4 h compound incubation, MTS, read-out: IC50 Values, Cancerous Cells, Colon DLD-1
[6] = tested on: DU-145 human prostate carcinoma cells; test: MTS cell viability assay, DU-145 human prostate carcinoma cells; assay type: cell-based; conditions: DU-145, 4 h compound incubation, MTS, read-out: IC50 Values, Cancerous Cells, Prostate DU-145
[7] = tested on: NCM-460 normal colon epithelial cells; test: MTS cell viability assay, NCM-460 normal colon epithelial cells; assay type: cell-based; conditions: for IC50: Homo sapiens, NCM460, NCM-460, 4 h compound incubation, MTS, read-out: IC50 Values, Normal Cells, Colon NCM-460; for Fold Selectivity (NCM-460/DLD1): ratio of IC50 NCM-460 / DLD1
[8] = tested on: A549 human lung carcinoma cells; test: MTS cell viability assay, A549 human lung carcinoma cells; assay type: cell-based; conditions: A549, 4 h compound incubation, MTS, read-out: IC50 Values, Cancerous Cells, Lung A549
human cancer cell lines = conditions: single agent; read-out: antineoplastic activity against human cancer cell lines (IC50); cited from earlier work
[9] = tested on: normal fresh or proliferating human PBMC; conditions: cited from earlier work
[10] = 40 mg/kg intraperitoneally qMWFx4, HT29 xenograft
[11] = 40 mg/kg intraperitoneally qMWFx3, HT29 xenograft
[12] = 32 mg/kg intraperitoneally qMWFx3, HT29 xenograft
[13] = 48 mg/kg intraperitoneally qMWFx3, HT29 xenograft

Row | Structure (SMILES) | IC50 [1] [nM] | IC50 [2] [nM] | IC50 [4] [nM] | IC50 [5] [nM] | IC50 [6] [nM] | IC50 [8] [nM] | % T/C [3, 10] [%] | reduction of mean tumor volume compared to vehicle treated control [3, 10] [%] | E2F-1 Induction (HT-29) (E2F-1) | IC50 [7] [nM] | Fold Selectivity (NCM-460/DLD1) [7] | % T/C [3, 11] [%] | reduction of mean tumor volume compared to vehicle treated control [3, 11] [%] | % T/C [3, 12] [%] | reduction of mean tumor volume compared to vehicle treated control [3, 12] [%] | Opt. % T/C [3, 13] [%] | reduction of mean tumor volume compared to vehicle treated control [3, 13] [%] | IC50 (human cancer cell lines) [nM] | cytotoxic effects on normal fresh or proliferating human PBMC [9]
1 | O=C1C(=O)c2ccccc2C2=C1SCC1(CCN(Cc3ccc(F)cc3)CC1)O2 [Compound 125, 1′-(4-fluorobenzyl)spiro[naphtho[1,2-b][1,4]oxathiine-2,4′-piperidine]-5,6-dione] | 2500 | 3740 | 4950 | 1710 | 5060 | 9570 | 46.2 | 57.8 | Yes | 9750 | 5.7 | – | – | – | – | – | – | – | –
2 | CC(C)(C)c1ccc(OC[C@@H](O)CN2CCC3(CC2)CSC2=C(O3)c3ccccc3C(=O)C2=O)cc1 [Compound 184, 1′-[(2S)-3-(4-tert-butylphenoxy)-2-hydroxypropyl]spiro[naphtho[1,2-b][1,4]oxathiine-2,4′-piperidine]-5,6-dione] | 1710 | 5340 | 3670 | 2580 | 1650 | 5850 | – | – | Yes | 27800 | 10.8 | – | – | 29.8 | 70.2 | – | – | – | –
3 | O=C1C(=O)c2ccccc2C2=C1SCC1(CCN(C[C@@H](O)Cc3ccccc3)CC1)O2 [Compound 187, 1′-[(2S)-2-hydroxy-3-phenylpropyl]spiro[naphtho[1,2-b][1,4]oxathiine-2,4′-piperidine]-5,6-dione] | 1900 | 2700 | 5500 | 2100 | 3000 | 5100 | – | – | YES | 8100 | – | – | – | – | – | 38 | 62 | – | –
4 | CC1(C)CCC2=C(O1)c1ccccc1C(=O)C2=O [β-lapachone, 3,4-dihydro-2,2-dimethyl-2H-naphtho[1,2-b]pyran-5,6-dione] | – | – | – | – | – | – | – | – | – | – | – | – | – | – | – | – | – | 1000 to 10000 | No cytotoxic effects

Further lines, with some results ahead:

Row | IC50 [1] [nM] | IC50 [2] [nM] | IC50 [4] [nM] | IC50 [5] [nM] | IC50 [6] [nM] | IC50 [8] [nM] | Structure (SMILES) | % T/C [3, 10] [%] | reduction of mean tumor volume compared to vehicle treated control [3, 10] [%] | E2F-1 Induction (HT-29) (E2F-1) | IC50 [7] [nM] | Fold Selectivity (NCM-460/DLD1) [7] | % T/C [3, 11] [%] | reduction of mean tumor volume compared to vehicle treated control [3, 11] [%] | % T/C [3, 12] [%] | reduction of mean tumor volume compared to vehicle treated control [3, 12] [%] | Opt. % T/C [3, 13] [%] | reduction of mean tumor volume compared to vehicle treated control [3, 13] [%] | IC50 (human cancer cell lines) [nM] | cytotoxic effects on normal fresh or proliferating human PBMC [9]
5 | 958 | 1460 | 2200 | 708 | 1480 | 3530 | O=C1C(=O)c2ccccc2C2=C1SCC1(CCN(C[C@H](O)COc3ccc(F)cc3)CC1)O2 [Compound 180, 1′-[(2S)-3-(4-fluorophenoxy)-2-hydroxypropyl]spiro[naphtho[1,2-b][1,4]oxathiine-2,4′-piperidine]-5,6-dione] | 58.3 | 41.7 | Yes | 3570 | 5.0 | – | – | – | – | – | – | – | –
6 | 1330 | 3250 | 2070 | 1300 | 1280 | 6450 | O=C1C(=O)c2ccccc2C2=C1SCC1(CCN(C[C@H](O)COc3ccc(Cl)cc3)CC1)O2 [Compound 182, 1′-[(2S)-3-(4-chlorophenoxy)-2-hydroxypropyl]spiro[naphtho[1,2-b][1,4]oxathiine-2,4′-piperidine]-5,6-dione] | – | – | Yes | 11200 | 8.6 | 44.8 | 55.2 | – | – | – | – | – | –
7 | 700 | 2420 | 3880 | 1040 | 796 | 3100 | O=C1C(=O)c2ccccc2C2=C1SCC1(CCN(C[C@@H](O)COc3ccc(Cl)cc3)CC1)O2 [Compound 183, 1′-[(2R)-3-(4-chlorophenoxy)-2-hydroxypropyl]spiro[naphtho[1,2-b][1,4]oxathiine-2,4′-piperidine]-5,6-dione] | – | – | Yes | 10200 | 9.8 | – | – | – | – | – | – | – | –
8 | 1370 | 4460 | 2470 | 3380 | 1010 | 7420 | CC(C)(C)c1ccc(OC[C@H](O)CN2CCC3(CC2)CSC2=C(O3)c3ccccc3C(=O)C2=O)cc1 [Compound 185, 1′-[(2R)-3-(4-tert-butylphenoxy)-2-hydroxypropyl]spiro[naphtho[1,2-b][1,4]oxathiine-2,4′-piperidine]-5,6-dione] | – | – | YES | 13700 | 4.1 | – | – | – | – | – | – | – | –
9 | 1500 | 2300 | 6500 | 1500 | 2100 | 5500 | O=C1C(=O)c2ccccc2C2=C1SCC1(CCN(C[C@H](O)Cc3ccccc3)CC1)O2 [Compound 186, 1′-[(2R)-2-hydroxy-3-phenylpropyl]spiro[naphtho[1,2-b][1,4]oxathiine-2,4′-piperidine]-5,6-dione] | – | – | YES | 6800 | 4.7 | – | – | 50 | 50 | – | – | – | –

Reference: patent US7902354B2, “Lapachone compounds and methods of use thereof” (ArQule, Inc., priority 2006, dated 2011)
